In PMC3265452 (PLoS Neglected Tropical Diseases, 2012):
Structures can show the parent of a compound that is named as a salt.

What follows are compounds tested against AaDOP2 (Aedes aegypti, UniProt H6D5H2) (assay: AaDOP2 antagonist screen of the LOPAC1280 library (HEK-CRELuc-Aadop2 cells, luminescence)). Conditions: not given.
Assay type: cell-based

AaDOP2, sequence (H6D5H2 1-476): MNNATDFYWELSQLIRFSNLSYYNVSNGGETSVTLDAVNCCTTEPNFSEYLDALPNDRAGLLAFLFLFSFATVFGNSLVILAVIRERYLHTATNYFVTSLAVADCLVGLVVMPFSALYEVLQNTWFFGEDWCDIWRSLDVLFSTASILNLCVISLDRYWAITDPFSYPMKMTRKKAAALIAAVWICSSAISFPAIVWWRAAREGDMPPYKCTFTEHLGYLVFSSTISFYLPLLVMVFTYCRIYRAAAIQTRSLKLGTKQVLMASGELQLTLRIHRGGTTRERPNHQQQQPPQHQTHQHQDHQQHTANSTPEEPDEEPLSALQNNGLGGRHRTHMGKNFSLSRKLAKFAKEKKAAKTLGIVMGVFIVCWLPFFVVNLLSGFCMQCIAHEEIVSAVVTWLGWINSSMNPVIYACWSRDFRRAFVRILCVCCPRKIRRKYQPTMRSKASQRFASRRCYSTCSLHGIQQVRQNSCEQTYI

Question: For `Cl.Clc1ccc(N2CCN(Cc3c[nH]c4ncccc34)CC2)cc1` [Compound 728, L-745,870 hydrochloride], which “Compound effect (percent receptor signaling in presence of test compound, relative lux units relative to the SCH23390 control)” value is on record?
Answer: 111

Question: How did the “Compound effect (percent receptor signaling in presence of test compound, relative lux units relative to the SCH23390 control)” value turn out when `O=C1N(c2ccccc2)c2ccccc2C1(Cc1ccncc1)Cc1ccncc1` [Compound 730, Linopirdine] was run?
Answer: 106

Question: With `OC1(c2ccc(Cl)cc2)CCN(Cc2c[nH]c3ccccc23)CC1` [Compound 731, L-741,626] as the compound, how does the “Compound effect (percent receptor signaling in presence of test compound, relative lux units relative to the SCH23390 control)” value read?
Answer: 104

Question: For `COc1cc(CNC(=O)CCCCCCC(C)C)ccc1O` [Compound 735, Dihydrocapsaicin], which “Compound effect (percent receptor signaling in presence of test compound, relative lux units relative to the SCH23390 control)” value is on record?
Answer: 102

Question: With `Cc1cn[nH]c1.Cl` [Compound 737, 4-Methylpyrazole hydrochloride] as the compound, how does the “Compound effect (percent receptor signaling in presence of test compound, relative lux units relative to the SCH23390 control)” value read?
Answer: 111

Question: `COC(=O)Nc1nc2ccc(C(=O)c3cccs3)cc2[nH]1` [Compound 738, Nocodazole] was tested. Which “Compound effect (percent receptor signaling in presence of test compound, relative lux units relative to the SCH23390 control)” value did it give?
Answer: 89

Question: With `CNCCc1c[nH]c2ccc(O)cc12.O=C(O)C(=O)O` [Compound 739, N-omega-Methyl-5-hydroxytryptamine oxalate salt] as the compound, how does the “Compound effect (percent receptor signaling in presence of test compound, relative lux units relative to the SCH23390 control)” value read?
Answer: 115

Question: With `C#CCN1C(C)=C(C(=O)OC)C(c2cccc([N+](=O)[O-])c2)C(C(=O)OCC)=C1C` (centres unmarked) [Compound 741, MRS 1845] as the compound, how does the “Compound effect (percent receptor signaling in presence of test compound, relative lux units relative to the SCH23390 control)” value read?
Answer: 101

Question: `CCCOC(=O)c1c(-c2ccccc2)nc(CC)c(C(=O)SCC)c1CCC` [Compound 743, MRS 1523] was tested. Which “Compound effect (percent receptor signaling in presence of test compound, relative lux units relative to the SCH23390 control)” value did it give?
Answer: 101

Question: For `N[C@@H](Cc1ccc(N(CCCl)CCCl)cc1)C(=O)O` [Compound 744, Melphalan], which “Compound effect (percent receptor signaling in presence of test compound, relative lux units relative to the SCH23390 control)” value is on record?
Answer: 102

Question: How did the “Compound effect (percent receptor signaling in presence of test compound, relative lux units relative to the SCH23390 control)” value turn out when `COc1ccc2[nH]cc(CCN(C)C)c2c1.O=C(O)C(=O)O` [Compound 745, 5-Methoxy DMT oxalate] was run?
Answer: 104

Question: How did the “Compound effect (percent receptor signaling in presence of test compound, relative lux units relative to the SCH23390 control)” value turn out when `CC[C@H](C)C(=O)O[C@H]1CCC=C2C=C[C@H](C)[C@H](CC[C@@H]3C[C@@H](O)CC(=O)O3)[C@H]21` [Compound 748, Mevastatin] was run?
Answer: 106

Question: For `COCc1nc2c([nH]1)c(=O)n(C)c(=O)n2CC(C)C` [Compound 749, 8-Methoxymethyl-3-isobutyl-1-methylxanthine], which “Compound effect (percent receptor signaling in presence of test compound, relative lux units relative to the SCH23390 control)” value is on record?
Answer: 107

Question: For `CC(C)c1ccc2c(c1)c(SC(C)(C)C)c(CC(C)(C)C(=O)O)n2Cc1ccc(Cl)cc1` [Compound 750, MK-886], which “Compound effect (percent receptor signaling in presence of test compound, relative lux units relative to the SCH23390 control)” value is on record?
Answer: 65

Question: With `CC[C@@H](CO)NC(=O)[C@@H]1C=C2c3cccc4[nH]cc(c34)C[C@H]2N(C)C1` [Compound 752, Methylergonovine maleate] as the compound, how does the “Compound effect (percent receptor signaling in presence of test compound, relative lux units relative to the SCH23390 control)” value read?
Answer: 107

Question: Which “Compound effect (percent receptor signaling in presence of test compound, relative lux units relative to the SCH23390 control)” value does the source give for `CCOC(=O)[N-]c1cn(N2CCOCC2)n[o+]1` [Compound 753, Molsidomine] here?
Answer: 98

Question: How did the “Compound effect (percent receptor signaling in presence of test compound, relative lux units relative to the SCH23390 control)” value turn out when `Cc1nnc2ccc(-c3cccc(C(F)(F)F)c3)nn12` [Compound 754, 3-Methyl-6-(3-[trifluoromethyl]phenyl)-1,2,4-triazolo[4,3-b]pyridazine] was run?
Answer: 87

Question: How did the “Compound effect (percent receptor signaling in presence of test compound, relative lux units relative to the SCH23390 control)” value turn out when `NC(=O)c1ncn([C@@H]2O[C@H](CO)[C@@H](O)[C@H]2O)c1O` [Compound 755, Mizoribine] was run?
Answer: 94

Question: `CC[N+](CC)(CC)CCOc1ccc(/C=C/c2ccccc2)cc1` [Compound 757, MG 624] was tested. Which “Compound effect (percent receptor signaling in presence of test compound, relative lux units relative to the SCH23390 control)” value did it give?
Answer: 89

Question: How did the “Compound effect (percent receptor signaling in presence of test compound, relative lux units relative to the SCH23390 control)” value turn out when `CN[C@H](CC(=O)O)C(=O)O` [Compound 758, N-Methyl-D-aspartic acid] was run?
Answer: 97

Question: How did the “Compound effect (percent receptor signaling in presence of test compound, relative lux units relative to the SCH23390 control)” value turn out when `CCCCCCCCCCCCCCCCOCC(COCC(F)(F)F)OP(=O)(O)OC` (centres unmarked) [Compound 760, MJ33] was run?
Answer: 77

Question: `CN1C[C@H](CNC(=O)OCc2ccccc2)C[C@@H]2c3cccc4c3c(cn4C)C[C@H]21` [Compound 761, Metergoline] was tested. Which “Compound effect (percent receptor signaling in presence of test compound, relative lux units relative to the SCH23390 control)” value did it give?
Answer: 33

Question: `C#CCN(C)CCCOc1ccc(Cl)cc1Cl` [Compound 763, Clorgyline hydrochloride] was tested. Which “Compound effect (percent receptor signaling in presence of test compound, relative lux units relative to the SCH23390 control)” value did it give?
Answer: 96

Question: How did the “Compound effect (percent receptor signaling in presence of test compound, relative lux units relative to the SCH23390 control)” value turn out when `CNc1ncnc2c1ncn2[C@H]1C[C@H](OP(=O)(O)O)[C@@H](COP(=O)(O)O)O1` [Compound 764, MRS 2179] was run?
Answer: 105

Question: How did the “Compound effect (percent receptor signaling in presence of test compound, relative lux units relative to the SCH23390 control)” value turn out when `Cc1cnc(NC(=O)C2=C(O)c3ccccc3S(=O)(=O)N2C)s1` [Compound 765, Meloxicam sodium] was run?
Answer: 115

Question: For `O=c1c(O)c(-c2ccc(O)cc2O)oc2cc(O)cc(O)c12` [Compound 766, Morin], which “Compound effect (percent receptor signaling in presence of test compound, relative lux units relative to the SCH23390 control)” value is on record?
Answer: 117

Question: Which “Compound effect (percent receptor signaling in presence of test compound, relative lux units relative to the SCH23390 control)” value does the source give for `Nc1cc(N2CCCCC2)nc(N)[n+]1[O-]` [Compound 767, Minoxidil] here?
Answer: 110

Question: With `COc1cc(CCN)ccc1O.Cl` [Compound 768, 3-Methoxy-4-hydroxyphenethylamine hydrochloride] as the compound, how does the “Compound effect (percent receptor signaling in presence of test compound, relative lux units relative to the SCH23390 control)” value read?
Answer: 116

Question: `Cc1ccc(Cl)c(Nc2ccccc2C(=O)O)c1Cl` [Compound 769, Meclofenamic acid sodium] was tested. Which “Compound effect (percent receptor signaling in presence of test compound, relative lux units relative to the SCH23390 control)” value did it give?
Answer: 107

Same assay, conditions: 10 µM compound, 300 nM dopamine, 2 hr; hit = compound effect <20

Question: How did the “Compound effect (percent receptor signaling in presence of test compound, relative lux units relative to the SCH23390 control)” value turn out when `Cl.Cl.Cl.Ic1ccc(N2CCN(Cc3c[nH]c4ncccc34)CC2)cc1` [Compound 729, L-750,667 trihydrochloride] was run?
Answer: 107%

Question: How did the “Compound effect (percent receptor signaling in presence of test compound, relative lux units relative to the SCH23390 control)” value turn out when `Cl.FC(F)(F)c1cc(CO[C@H]2CCCN[C@H]2c2ccccc2)cc(C(F)(F)F)c1` [Compound 732, L-733,060 hydrochloride] was run?
Answer: 94%

Question: How did the “Compound effect (percent receptor signaling in presence of test compound, relative lux units relative to the SCH23390 control)” value turn out when `CCN(CC)CCNC(=O)c1cc(Cl)c(N)cc1OC.Cl` [Compound 733, Metoclopramide hydrochloride] was run?
Answer: 101%

Question: How did the “Compound effect (percent receptor signaling in presence of test compound, relative lux units relative to the SCH23390 control)” value turn out when `COc1ccc2cc([C@H](C)C(=O)[O-])ccc2c1.[Na+]` [Compound 736, (-)-Naproxen sodium] was run?
Answer: 105%

Question: How did the “Compound effect (percent receptor signaling in presence of test compound, relative lux units relative to the SCH23390 control)” value turn out when `COc1nc(C)nc(Cl)c1NC1=NCCN1.Cl` [Compound 740, Moxonidine hydrochloride] was run?
Answer: 94%

Question: For `CN1C[C@H](O)[C@@H](O)[C@H](O)[C@H]1CO` [Compound 742, N-Methyl-1-deoxynojirimycin], which “Compound effect (percent receptor signaling in presence of test compound, relative lux units relative to the SCH23390 control)” value is on record?
Answer: 101%

Question: Which “Compound effect (percent receptor signaling in presence of test compound, relative lux units relative to the SCH23390 control)” value does the source give for `CC(C)NCC(O)c1cc(O)cc(O)c1.CC(C)NCC(O)c1cc(O)cc(O)c1.O=S(=O)(O)O` (centres unmarked) [Compound 746, Metaproterenol hemisulfate] here?
Answer: 111%

Question: How did the “Compound effect (percent receptor signaling in presence of test compound, relative lux units relative to the SCH23390 control)” value turn out when `Cc1cccc(C)c1OCC(C)N.Cl` (centres unmarked) [Compound 751, Mexiletene hydrochloride] was run?
Answer: 105%

Question: `CSC(=N)N.CSC(=N)N.O=S(=O)(O)O` [Compound 756, S-Methylisothiourea hemisulfate] was tested. Which “Compound effect (percent receptor signaling in presence of test compound, relative lux units relative to the SCH23390 control)” value did it give?
Answer: 99%
